Test results taken from patent US6358885B1, “Substituted phenylheterocyclic herbicides” (Mississippi State University, priority 1992, dated 2002).

Tests used:
Experiment in all cases: Test B preemergence/postemergence greenhouse plant response rating 0 to 10
Settings in all cases: 0 to 10 scale
barley = type: in vivo, Hordeum vulgare
Summary of the method: (§1)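 Both application timings were run together: seeds got compound preemergence, and established seedlings (two to eighteen cm) got it postemergence. Non-phytotoxic solvent carried the chemical. Ratings are visual, versus controls, at twelve to sixteen days.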

barnyardgrass = type: in vivo, Echinochloa crus-galli
Summary of the method: as §1

bedstraw = type: in vivo, Galium aparine
Summary of the method: as §1

blackgrass = type: in vivo, Alopecurus myosuroides
Summary of the method: as §1

cheatgrass = type: in vivo, Bromus secalinus
Summary of the method: as §1

chickweed = type: in vivo, Stellaria media
Summary of the method: as §1

cocklebur = type: in vivo, Xanthium pensylvanicum
Summary of the method: as §1

corn = type: in vivo, Zea mays
Summary of the method: as §1

cotton = type: in vivo, Gossypium hirsutum
Summary of the method: as §1

crabgrass = type: in vivo, Digitaria spp.
Summary of the method: as §1

giant foxtail = type: in vivo, Setaria faberii
Summary of the method: as §1

lambsquarters = type: in vivo, Chenopodium album
Summary of the method: as §1

morningglory = type: in vivo, Ipomoea hederacea
Summary of the method: as §1

rape = type: in vivo, Brassica napus
Summary of the method: as §1

rice = type: in vivo, Oryza sativa
Summary of the method: as §1

sorghum = type: in vivo, Sorghum bicolor
Summary of the method: as §1

soybean = type: in vivo, Glycine max
Summary of the method: as §1

sugar beet = type: in vivo, Beta vulgaris
Summary of the method: as §1

velvetleaf = type: in vivo, Abutilon theophrasti
Summary of the method: as §1

wheat = type: in vivo, Triticum aestivum
Summary of the method: as §1

wild buckwheat = type: in vivo, Polygonum convolvulus
Summary of the method: as §1

wild oat = type: in vivo, Avena fatua
Summary of the method: as §1

purple nutsedge = type: in vivo, Cyperus rotundus
Summary of the method: as §1

With `C#CCOC(=O)COc1cc(-c2nn3c(c2Cl)CCCC3)c(F)cc1Cl` [Compound 61] the “Plant response rating, Barley” value (barley; POSTEMERGENCE, Rate 10 g/ha) was 1, the “Plant response rating, Barley” value (barley; POSTEMERGENCE, Rate 50 g/ha) was 2 and the “Plant response rating, Barley” value (barley; PREEMERGENCE, Rate 10 g/ha) was 0. The “Plant response rating, Barley” value (barley; PREEMERGENCE, Rate 50 g/ha) was 0, the “Plant response rating, Barnyardgrass” value (barnyardgrass; POSTEMERGENCE, Rate 10 g/ha) was 2 and the “Plant response rating, Barnyardgrass” value (barnyardgrass; POSTEMERGENCE, Rate 50 g/ha) was 2. For the same molecule, the “Plant response rating, Barnyardgrass” value (barnyardgrass; PREEMERGENCE, Rate 10 g/ha) was 0, the “Plant response rating, Barnyardgrass” value (barnyardgrass; PREEMERGENCE, Rate 50 g/ha) was 0 and the “Plant response rating, Bedstraw” value (bedstraw; POSTEMERGENCE, Rate 10 g/ha) was 5. The “Plant response rating, Bedstraw” value (bedstraw; POSTEMERGENCE, Rate 50 g/ha) was 9, the “Plant response rating, Bedstraw” value (bedstraw; PREEMERGENCE, Rate 10 g/ha) was 0 and the “Plant response rating, Bedstraw” value (bedstraw; PREEMERGENCE, Rate 50 g/ha) was 5. The “Plant response rating, Blackgrass” value (blackgrass; POSTEMERGENCE, Rate 10 g/ha) was 2, the “Plant response rating, Blackgrass” value (blackgrass; POSTEMERGENCE, Rate 50 g/ha) was 3 and the “Plant response rating, Blackgrass” value (blackgrass; PREEMERGENCE, Rate 10 g/ha) was 0. For the same molecule, the “Plant response rating, Blackgrass” value (blackgrass; PREEMERGENCE, Rate 50 g/ha) was 2, the “Plant response rating, Cheatgrass” value (cheatgrass; POSTEMERGENCE, Rate 10 g/ha) was 2 and the “Plant response rating, Cheatgrass” value (cheatgrass; POSTEMERGENCE, Rate 50 g/ha) was 3. For the same molecule, the “Plant response rating, Cheatgrass” value (cheatgrass; PREEMERGENCE, Rate 10 g/ha) was 0, the “Plant response rating, Cheatgrass” value (cheatgrass; PREEMERGENCE, Rate 50 g/ha) was 2 and the “Plant response rating, Chickweed” value (chickweed; POSTEMERGENCE, Rate 10 g/ha) was 2. For the same molecule, the “Plant response rating, Chickweed” value (chickweed; POSTEMERGENCE, Rate 50 g/ha) was 2, the “Plant response rating, Chickweed” value (chickweed; PREEMERGENCE, Rate 50 g/ha) was 3 and the “Plant response rating, Cocklebur” value (cocklebur; POSTEMERGENCE, Rate 10 g/ha) was 4. The “Plant response rating, Cocklebur” value (cocklebur; POSTEMERGENCE, Rate 50 g/ha) was 8, the “Plant response rating, Cocklebur” value (cocklebur; PREEMERGENCE, Rate 10 g/ha) was 0 and the “Plant response rating, Cocklebur” value (cocklebur; PREEMERGENCE, Rate 50 g/ha) was 0. The “Plant response rating, Corn” value (corn; POSTEMERGENCE, Rate 10 g/ha) was 3, the “Plant response rating, Corn” value (corn; POSTEMERGENCE, Rate 50 g/ha) was 5 and the “Plant response rating, Corn” value (corn; PREEMERGENCE, Rate 50 g/ha) was 0. For the same molecule, the “Plant response rating, Cotton” value (cotton; POSTEMERGENCE, Rate 10 g/ha) was 9, the “Plant response rating, Cotton” value (cotton; POSTEMERGENCE, Rate 50 g/ha) was 10 and the “Plant response rating, Cotton” value (cotton; PREEMERGENCE, Rate 10 g/ha) was 0. For the same molecule, the “Plant response rating, Cotton” value (cotton; PREEMERGENCE, Rate 50 g/ha) was 0, the “Plant response rating, Crabgrass” value (crabgrass; POSTEMERGENCE, Rate 10 g/ha) was 2 and the “Plant response rating, Crabgrass” value (crabgrass; POSTEMERGENCE, Rate 50 g/ha) was 2. The “Plant response rating, Crabgrass” value (crabgrass; PREEMERGENCE, Rate 10 g/ha) was 0, the “Plant response rating, Crabgrass” value (crabgrass; PREEMERGENCE, Rate 50 g/ha) was 0 and the “Plant response rating, Giant foxtail” value (giant foxtail; POSTEMERGENCE, Rate 10 g/ha) was 2. For the same molecule, the “Plant response rating, Giant foxtail” value (giant foxtail; POSTEMERGENCE, Rate 50 g/ha) was 2, the “Plant response rating, Giant foxtail” value (giant foxtail; PREEMERGENCE, Rate 10 g/ha) was 0 and the “Plant response rating, Giant foxtail” value (giant foxtail; PREEMERGENCE, Rate 50 g/ha) was 0. The “Plant response rating, Lambsquarter” value (lambsquarters; POSTEMERGENCE, Rate 10 g/ha) was 9, the “Plant response rating, Lambsquarter” value (lambsquarters; POSTEMERGENCE, Rate 50 g/ha) was 9 and the “Plant response rating, Lambsquarter” value (lambsquarters; PREEMERGENCE, Rate 50 g/ha) was 9. For the same molecule, the “Plant response rating, Morningglory” value (morningglory; POSTEMERGENCE, Rate 10 g/ha) was 7, the “Plant response rating, Morningglory” value (morningglory; POSTEMERGENCE, Rate 50 g/ha) was 10 and the “Plant response rating, Morningglory” value (morningglory; PREEMERGENCE, Rate 50 g/ha) was 3. The “Plant response rating, Rape” value (rape; POSTEMERGENCE, Rate 10 g/ha) was 1, the “Plant response rating, Rape” value (rape; POSTEMERGENCE, Rate 50 g/ha) was 8 and the “Plant response rating, Rape” value (rape; PREEMERGENCE, Rate 50 g/ha) was 4. For the same molecule, the “Plant response rating, Rice” value (rice; POSTEMERGENCE, Rate 10 g/ha) was 2, the “Plant response rating, Rice” value (rice; POSTEMERGENCE, Rate 50 g/ha) was 4 and the “Plant response rating, Rice” value (rice; PREEMERGENCE, Rate 50 g/ha) was 0. For the same molecule, the “Plant response rating, Sorghum” value (sorghum; POSTEMERGENCE, Rate 10 g/ha) was 2, the “Plant response rating, Sorghum” value (sorghum; POSTEMERGENCE, Rate 50 g/ha) was 3 and the “Plant response rating, Sorghum” value (sorghum; PREEMERGENCE, Rate 50 g/ha) was 0. The “Plant response rating, Soybean” value (soybean; POSTEMERGENCE, Rate 10 g/ha) was 2, the “Plant response rating, Soybean” value (soybean; POSTEMERGENCE, Rate 50 g/ha) was 3 and the “Plant response rating, Soybean” value (soybean; PREEMERGENCE, Rate 50 g/ha) was 0. For the same molecule, the “Plant response rating, Sugar beet” value (sugar beet; POSTEMERGENCE, Rate 10 g/ha) was 10, the “Plant response rating, Sugar beet” value (sugar beet; POSTEMERGENCE, Rate 50 g/ha) was 10 and the “Plant response rating, Sugar beet” value (sugar beet; PREEMERGENCE, Rate 50 g/ha) was 10. The “Plant response rating, Velvetleaf” value (velvetleaf; POSTEMERGENCE, Rate 10 g/ha) was 2, the “Plant response rating, Velvetleaf” value (velvetleaf; POSTEMERGENCE, Rate 50 g/ha) was 10 and the “Plant response rating, Velvetleaf” value (velvetleaf; PREEMERGENCE, Rate 50 g/ha) was 10. For the same molecule, the “Plant response rating, Wheat” value (wheat; POSTEMERGENCE, Rate 10 g/ha) was 2, the “Plant response rating, Wheat” value (wheat; POSTEMERGENCE, Rate 50 g/ha) was 3 and the “Plant response rating, Wheat” value (wheat; PREEMERGENCE, Rate 50 g/ha) was 0. For the same molecule, the “Plant response rating, Wild buckwheat” value (wild buckwheat; POSTEMERGENCE, Rate 10 g/ha) was 3, the “Plant response rating, Wild buckwheat” value (wild buckwheat; POSTEMERGENCE, Rate 50 g/ha) was 9 and the “Plant response rating, Wild buckwheat” value (wild buckwheat; PREEMERGENCE, Rate 50 g/ha) was 0. For the same molecule, the “Plant response rating, Wild oat” value (wild oat; POSTEMERGENCE, Rate 10 g/ha) was 1, the “Plant response rating, Wild oat” value (wild oat; POSTEMERGENCE, Rate 50 g/ha) was 2 and the “Plant response rating, Wild oat” value (wild oat; PREEMERGENCE, Rate 50 g/ha) was 2. For the same molecule, the “Plant response rating, Nutsedge” value (purple nutsedge; POSTEMERGENCE, Rate 10 g/ha) was 0, the “Plant response rating, Nutsedge” value (purple nutsedge; POSTEMERGENCE, Rate 50 g/ha) was 2 and the “Plant response rating, Nutsedge” value (purple nutsedge; PREEMERGENCE, Rate 50 g/ha) was 10.
